The numbers were not newly measured in patent EP0721734A1, “PESTICIDE COMPOSITION” (NIPPON SODA CO., LTD., priority 1993, dated 1995), which cites them from elsewhere.

In the case of `CCN(Cc1ccc(Cl)nc1)C(=C[N+](=O)[O-])NC` [2-methylamino-2-[N-ethyl-(2-chloro-5-pyridyl)methylamino]-nitoroethylene], the water solubility entry is “up to 600 g/l”.
With `CCSCc1ccccc1OC(=O)NC` [Ethiophencalb], the water solubility was 1,900 ppm.
`CCc1cccc(C)c1N(C(=O)CCl)C(C)COC` (stereo not drawn) [Metolachlor]: the water solubility is on record as 530 ppm.
Take `CCCC(Cn1cncn1)c1ccc(Cl)cc1Cl` (stereo not drawn) [Penconasole]: the water solubility is 70 ppm.
Take `CCO[PH](=O)[O-].CCO[PH](=O)[O-].CCO[PH](=O)[O-].[Al+3]` [Phosethyl-Alminium]: the water solubility is 120 g/L.
Turning to `CC(=NC#N)N(C)Cc1ccc(Cl)nc1` [active substance-1, N^1-[(2-chloro-5-pyridyl)methyl]-N^2-cyano-N^1-methylacetamidine], the water solubility is on record as 3,700 ppm.
